Laboratory results published in US20150265608A1, “Compounds for Treating Rac-GTPase Mediated Disorder” (Children's Medical Center Corporation, priority 2012, published 2015).

Tests used:
[1] = test system: normal bone marrow hematopoietic progenitor cells; assay: clonogenic assay in methylcellulose (colony formation) for toxicity; format: cell-based, mouse; conditions: compared to the other compounds
Description: Four of the lead compounds (Compounds 2, 3, 4, and 5) were screened for toxicity in normal bone marrow hematopoietic progenitor cells. Average colonies formed from normal BL-6 mouse bone marrow were counted following exposure of the four lead compounds individually at concentrations of 5 μM, 20 μM or 80 μM in methylcellulose. A clonogenic assay in methylcellulose was performed to assess colony formation. MethoCult base (StemCell Tech #03134) was mixed with the following reagents: fetal bovine serum, bovine serum albumin, IL-3, mSCF, EPO, beta-mercaptoethanol, penicillin, streptomycin, L-glutamine, and IMDM, and added to normal bone marrow cells. The cells in suspension are then plated and resulting colonies counted after 7 days.

leukemia cell lines = assay: MTS assay of inhibition of proliferation; format: cell-based
Description: The 100 compounds selected from the initial in silico screen were assayed for inhibition of proliferation in two leukemia cell lines, SEM and REH, by MTS ((3-(4,5-dimethylthiazol-2-yl)-5-(3-carboxymethoxyphenyl)-2-(4-sulfophenyl)-2H-tetrazolium)) assay. The cells for the MTS assay were spun down and re-suspended. The cell suspension was then divided and the compound to be tested added in desired concentrations and subsequently plated. Following an incubation period, MTS reagent (Promega CellTiter 96® Aqueous Non-Radioactive Cell Proliferation Assay) was added and allowed to incubate. The absorbance is subsequently measured at 490 nm using a plate reader.
The five lead compounds, i.e. Compounds 1-5, were further analyzed for their effect on cell proliferation at various doses on different leukemia cells. First, each the five compounds was screened in nine leukemia cell lines: REH, SEM, MV411, RS411, Jurkat, Raji, Nomo-1, Naim6, and ML2 at a concentration of 20 μM. Four of the lead compounds, Compounds 2, 3, 4 and 5 were further tested in SEM and MV411 cells at a range of concentrations for inhibition of proliferation. In order to quantitate the percentage inhibition of cell proliferation, MTS analysis was completed as described in Example 2 above.

Rac1-GTPase = molecular target: T1, Rac1-GTPase (Homo sapiens, UniProt P63000); assay: pull down assay for RAC-GTP with Western blot; format: cell-based; conditions: exposure of the cells for 5 and 60 minutes, FIG. 9b
T1 construct: The assay initially required treatment of cells followed by pull down and analysis with Western blot; endogenous in cells; host or cells: Leukemia cells
Description: To determine which of these compounds should be further pursued, a biochemical pull down assay was performed to confirm specific inhibition of Rac activation indicated by disruption of the interaction between Rac and […]. The assay initially required treatment of cells followed by pull down and analysis with Western blot. The cells were first starved in serum free media for 2 hours. They were then re-suspended in serum-containing medium and inhibitors added at desired concentration. Following incubation for the desired length of time, the cells were pelleted and lysed with Magnesium Lysis Buffer (Millipore Mg^2+lysis/wash buffer). The Rac protein and any bound proteins were then collected with Pak Beads (Millipore Rac/cdc42 Assay Reagent (PAK-1 PBD, agarose). Bound protein was subsequently removed with lysis buffer and subject to Western Blot analysis.
Additional analysis of Compound 5 was performed to assess its effects on apoptosis, cell death and RAC-GTPase interaction. FIG. 9a indicates the effect of OSSK—373747 on the apoptotic pathway in SEM cells. Apoptotic cells and dead cells following incubation of SEM cells with 20 and 80 μM of Compound 5 were analyzed using Annexin V staining.

[2] = in vivo tolerability in NSG mice xenografted with MV411 cells
Description: In vivo tolerability of Compound 7 was evaluated in NSG mice xenografted with MV411 cells stably expressing luciferase via constitutive promoter. Compound 7 was prepared in a solution of 10% NMP, 5% CremaphorEL, 30% PEG200, and 55% D5W and administered PO at a dose of 50, 100, 250, or 500 mg/kg once each day for a period of 7 days. Five mice were utilized for each test group.
Body weight was recorded 3 times/week upon dosing. On treatment day 6, the mice were imaged via bioluminescence imaging to ensure the presence of the xenografted MV411 leukemia cells. Following the final dose, dose 7, at least 100 μL of blood was drawn via submandibular bleed for plasma collection. Eight hours following the last dose, cardiac puncture blood draw was performed for plasma collection.

O=C(CSc1nc2ccccc2n1Cc1ccccc1)N/N=C/c1ccccc1O [Compound 5]
toxicity to the normal cells (average colonies from normal mouse bone marrow) ([1]; 20 μM or 80 μM, FIG. 8): least toxicity
toxicity to normal bone marrow cells ([1]; summary statement): low toxicity
efficacy (inhibition of leukemia cell proliferation) (leukemia cell lines; summary of prior experiments, compared to the other compounds): strong efficacy
GTPase and Rac interaction (Rac1-GTPase): decrease in GTPase and Rac interaction

Cc1nn(Cc2ccc(F)cc2)c2sc(C(=O)Nc3ccc4c(c3)OCO4)cc12 [Compound 7]
in vivo tolerability ([2]; PO 50, 100, 250 or 500 mg/kg once each day for 7 days): tolerable
change in weight of animals ([2]; PO 50, 100, 250 or 500 mg/kg over a 7 day period, FIG. 19b): no progressive weight loss

NNC(=O)CSc1nc2ccccc2n1Cc1ccccc1 [Compound 12]
inhibitory activity on leukemia cell lines (leukemia cell lines; in vitro): retains inhibitory activity
